Tests used:
C. elegans = experiment: Quantitative RT-PCR in worms; type: in vivo
Experimental: (§1) mRNA and mtDNA Analysis. Total RNA was prepared using TRIzol (Invitrogen) according to the manufacturer's instructions. RNA was treated with DNase, and 2 μg of RNA was used for reverse transcription (RT). cDNA was purified on QIAquick PCR cleanup columns (Qiagen, Valencia, Calif., USA). 50× diluted cDNA was used for RT-quantitative PCR (RT-VCR) VCR) reactions (Bai et al., 2007). The RT-qPCR reactions were performed using the Light-Cycler system (Roche Applied Science) and a qPCR Supermix (Qiagen) with the primers for mice summarized in Table 1 and 4, and with the primers for worms summarized on Table 7. mtDNA quantification was performed as described (Lagouge et al., 2006) with the primers indicated in Table 2 and 5.

C57Bl/6J mice = experiment: NAD+ metabolism in tissues after chronic NR feeding; type: in vivo
Experimental: as §1
(§2) Immunoprecipitation, SDS-PAGE, Western Blotting. Cells were lysed in lysis buffer (50 mM Tris, […], EDTA 1 mM, NP40 1%, nicotinamide 5 mM, Na-butyrate 1 in M, protease inhibitors pH7.4). Proteins were separated by SDS-PAGE and transferred onto nitrocellulose membranes. The origin of the primary and secondary antibodies used can be found as supplemental experimental procedures. Reactions were developed by enhanced chemiluminescence (Amersham, Little Chalfont, UK), PGC-1α, FOXO1 and Ndufa9 acetylation levels were analyzed by immunoprecipitation from cellular or nuclear lysates of tissues with anti-PGC-1α (Millipore), anti-FOXO1 (Cell Signaling, Danvers, Mass., USA) and anti-Ndufa9 (Abcam) antibody followed by Western blot using an acetyl-lysine antibody (Cell Signaling) that was normalized to total PGC-1a/FOXO1/Ndufa9 levels (Lagouge et al., 2006; Rodgers et al., 2005). In HEK293T cells HA-tagged PGC-1α was overexpressed and was immunoprecipitated using an anti-HA. In C2C12 myotubes, FLAG-HA tagged PGC-1α was introduced through adenoviral delivery 2 days before treatments, then IP was performed using anti-FLAG antibody and samples were processed as described. All blots were quantified by densitometry using ImageJ software. Poly(ADP-Ribose) detection was performed as previously described with slight modifications (Bai et al., PARP-1 inhibition increases mitochondrial metabolism through SIRT1 activation. Cell Metab 13, 461-468. (2011)) Briefly, PAR was detected by using a monoclonal anti-PAR antibody (Alexis, Lausanne Switzerland) by Western blotting of total protein lysates, using either 50 g of total worm protein lysates, 50 g of liver protein lysate or 200 g of muscle total protein extracts. PGC-1 acetylation was determined using PGC-1 immunoprecipitates from 2 mg of protein extracts, as described in Canto et al. (Canto et al., AMPK regulates energy expenditure by modulating NAD+ metabolism and SIRT1 activity. Nature 458, 1056 (2009)).
NAD^+ NAM Determination. NAD^+ levels in cultured cells were determined using a commercial kit (Enzychrom™, BioAssays Systems, CA). For tissue samples NAD^+ and NAM levels were determined as described in (Sauve et al., 2005). In brief, to a weighed aliquot of frozen pulverized tissue we added as standards, ^18O-NAD^+ (typically 2.00 nmol) and ^18O-NAM (typically 2.00 nmol). 70 L of ice-cold 7% perchloric acid was then added and the sample was vortexed and sonicated three times, then centrifuged. Clear supernatant was removed and neutralized by additions of 3 M NaOH and 1 M phosphate buffer (pH=9), then centrifuged. Clear supernatant was injected onto HPLC C-18 column with 20 mM ammonium acetate eluent to separate NAD^+ and NAM from other cellular components, NAD^+ and NAM peaks (260 nm absorbance) were collected. Collections were lyophilized to dryness and subjected to MALDI-TOF analysis. For NAD^+ measurement, ratio of intensities for m/z=664 and 666 peaks, corresponding to ^16O- and ^18O-NAD^+ isotopomers, was multiplied by 2.00 nmol and then divided by tissue weight to determine NAD+ concentration in the sample. […]

[1] = tested on: AMP-activated protein kinase (AMPK); experiment: AMPK activity (ACC phosphorylation) in C2C12 myotubes; type: cell-based; conditions: 24 hrs
Experimental: as §2, with “In C2C12 myotubes, FLAG-HA tagged PGC-1α was introduced through adenoviral delivery 2 days before treatments, then IP was performed using anti-FLAG antibody and samples were processed as described.” left out, “Poly(ADP-Ribose) detection was performed as previously described with slight modifications (Bai et al., PARP-1 inhibition increases mitochondrial metabolism through SIRT1 activation. Cell Metab 13, 461-468. (2011)) Briefly, PAR was detected by using a monoclonal anti-PAR antibody (Alexis, Lausanne Switzerland) by Western blotting of total protein lysates, using either 50 g of total worm protein lysates, 50 g of liver protein lysate or 200 g of muscle total protein extracts.” left out

AMPK activity (ACC phosphorylation levels) [1]	SMILES	expression of genes of mitochondrial oxidative metabolism (cts-1, cox-4) (C. elegans; day 3 of adulthood)	daf-16 expression (C. elegans; in vivo)	sod-3 expression (C. elegans; in vivo)	NAD+ levels in liver and muscle (C57Bl/6J mice; CD and HFD, chronic NR 400 mg/kg/day)	NAD+ in BAT (C57Bl/6J mice; chronic NR 400 mg/kg/day)	NAD+ levels in brain or white adipose tissue (WAT) (C57Bl/6J mice; chronic NR 400 mg/kg/day)	NADH levels in muscle (C57Bl/6J mice; gastrocnemius, HFD 16 weeks)	nicotinamide (NAM) levels in muscle (C57Bl/6J mice; gastrocnemius, HFD 16 weeks)	Nampt mRNA and protein levels (C57Bl/6J mice; quadriceps, HFD 16 weeks)	mRNA expression of NMNAT enzymes (C57Bl/6J mice; quadriceps, HFD 16 weeks)
	NC(=O)c1ccc[n+]([C@@H]2O[C@H](CO)[C@@H](O)[C@H]2O)c1 [NR, nicotinamide riboside]	trend for increased cts-1 expression	without affecting daf-16 mRNA levels	significantly higher sod-3 expression	increased NAD^+ levels	higher in the BAT of NR-fed mice, but only on HFD	but not in others, such as brain or white adipose tissue (WAT)	largely diminished	largely diminished	levels were also similar	could not detect differences
does not alter AMPK activity	CN(C)CC(=O)Nc1ccc2[nH]c(=O)c3ccccc3c2c1 [PJ34]										

— US10709724B2, “Methods of treating mitochondrial dysfunction” (Ecole Polytechnique Federale de Lausanne (EPFL), priority 2011, dated 2020)
